These results are taken from patent publication US20050209278A1, “Piperidinyl- and piperazinyl-sulfonylmethyl hydroxamic acids and their use as protease inhibitors” (priority 2002, published 2005).

Common to all, as to format: biochemical
For one experiment, the target named is T1, MMP-2 (Homo sapiens, UniProt P08253).
T1 construct: made in house; host or cells: MMP-2-transfected p2AHT2 cells
T1 sequence (P08253 110-660): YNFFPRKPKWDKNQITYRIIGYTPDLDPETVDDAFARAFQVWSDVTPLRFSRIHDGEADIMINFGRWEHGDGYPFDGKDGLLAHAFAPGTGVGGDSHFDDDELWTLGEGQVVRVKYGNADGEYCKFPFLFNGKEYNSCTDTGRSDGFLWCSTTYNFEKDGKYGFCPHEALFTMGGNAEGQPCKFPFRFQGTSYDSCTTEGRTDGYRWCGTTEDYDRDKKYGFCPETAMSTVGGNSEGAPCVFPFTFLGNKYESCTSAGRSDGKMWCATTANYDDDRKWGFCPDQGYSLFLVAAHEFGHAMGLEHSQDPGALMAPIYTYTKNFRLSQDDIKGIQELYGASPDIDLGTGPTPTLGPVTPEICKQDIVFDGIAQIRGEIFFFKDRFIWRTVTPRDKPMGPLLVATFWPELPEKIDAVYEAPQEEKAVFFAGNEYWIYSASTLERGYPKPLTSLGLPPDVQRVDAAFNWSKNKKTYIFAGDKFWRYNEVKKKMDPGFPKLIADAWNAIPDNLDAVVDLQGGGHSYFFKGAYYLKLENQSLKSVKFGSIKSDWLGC
Nature of the experiment: MMP-2 inhibition (in vitro Ki). To be noted: Table 9; read-out: MMP-2 Ki (IC-50).

Another experiment addresses T2, MMP-13 (Homo sapiens, UniProt P45452).
T2 construct: made in house; host or cells: baculovirus / insect cells
Nature of the experiment: MMP-13 inhibition (in vitro Ki). To be noted: Table 9; read-out: MMP-13 Ki (IC-50).

The target in another experiment is T3, MMP-9 (Homo sapiens, UniProt P14780).
T3 construct: made in house; host or cells: MMP-9-transfected HT1080 cells (spent media)
Nature of the experiment: MMP-9 inhibition (in vitro Ki). The conditions noted are these: Table 9; read-out: MMP-9 Ki (IC-50).

Another experiment has as its target T4, MMP-14 (Homo sapiens, UniProt P50281).
T4 construct: The catalytic domain enzyme was expressed in E. coli inclusion bodies, solubilized in urea; made in house
The experiment can be described thus: MMP-14 inhibition (in vitro Ki). The conditions noted are these: Table 9; read-out: MMP-14 Ki (IC-50).

The next experiment has as its target T5, MMP-1 (Homo sapiens, UniProt P03956).
T5 construct: made in house; host or cells: MMP-1-transfected HT-1080 cells (spent media)
T5 sequence (P03956 100-469): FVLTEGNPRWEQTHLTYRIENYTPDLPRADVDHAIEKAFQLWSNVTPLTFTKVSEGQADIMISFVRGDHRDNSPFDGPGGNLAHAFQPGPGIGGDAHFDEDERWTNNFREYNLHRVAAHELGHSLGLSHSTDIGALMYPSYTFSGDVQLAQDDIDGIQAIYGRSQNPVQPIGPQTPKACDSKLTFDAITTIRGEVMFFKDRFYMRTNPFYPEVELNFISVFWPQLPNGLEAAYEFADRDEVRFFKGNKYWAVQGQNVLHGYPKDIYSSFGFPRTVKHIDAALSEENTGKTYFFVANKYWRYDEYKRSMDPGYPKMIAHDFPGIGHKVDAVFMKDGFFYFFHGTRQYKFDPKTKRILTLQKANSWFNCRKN
Nature of the experiment: MMP-1 inhibition (in vitro Ki). To be noted: Table 9; read-out: MMP-1 Ki (IC-50).

Some results are limits rather than exact numbers.

T3 sequence (P14780 107-707 limits assumed): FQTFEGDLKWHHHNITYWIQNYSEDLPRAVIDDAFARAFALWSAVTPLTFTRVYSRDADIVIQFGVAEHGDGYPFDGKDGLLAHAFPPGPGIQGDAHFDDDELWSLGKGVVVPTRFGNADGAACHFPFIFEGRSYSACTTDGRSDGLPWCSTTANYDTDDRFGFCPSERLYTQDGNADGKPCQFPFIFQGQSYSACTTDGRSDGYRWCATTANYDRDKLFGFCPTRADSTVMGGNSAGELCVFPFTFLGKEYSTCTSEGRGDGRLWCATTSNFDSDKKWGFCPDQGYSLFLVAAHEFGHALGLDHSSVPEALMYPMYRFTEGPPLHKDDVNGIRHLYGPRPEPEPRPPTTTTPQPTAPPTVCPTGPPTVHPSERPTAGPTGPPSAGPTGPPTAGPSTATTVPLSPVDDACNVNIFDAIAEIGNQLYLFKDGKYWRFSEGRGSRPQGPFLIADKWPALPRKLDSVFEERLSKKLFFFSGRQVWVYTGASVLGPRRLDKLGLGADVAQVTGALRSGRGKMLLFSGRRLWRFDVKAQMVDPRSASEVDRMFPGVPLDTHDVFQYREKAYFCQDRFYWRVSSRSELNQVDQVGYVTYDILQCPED

Take `CC(C)CCc1cnc(C2CCN(S(=O)(=O)C3(C(=O)NO)CCOCC3)CC2)cn1` [Example A117]: the Ki (commonly the equilibrium dissociation constant of an inhibitor or competing ligand from its target) on MMP-2 was 9.91 nM; on MMP-13 it was 2.8 nM; at MMP-9, 0.96 nM; on MMP-14, more than 10 µM; on MMP-1, more than 10 µM.

Regarding `O=C(CO)N1CCC(C(=O)NO)(S(=O)(=O)N2CCC(c3ccc(CCC(F)(F)C(F)(F)F)cn3)CC2)CC1` [Example A118], the Ki was 0.56 nM on MMP-2; 0.18 nM on MMP-13; 0.4 nM at MMP-9; 3.6 µM on MMP-14; 6.6 µM on MMP-1.

With `O=C(CCCCN1CCN(S(=O)(=O)C2(C(=O)NO)CCOCC2)CC1)N1CCCCC1` [Example A119], the Ki on MMP-2 is more than 10000 nM; at MMP-13, 154 nM; on MMP-9 it was more than 10000 nM; on MMP-14 it was more than 10 µM; at MMP-1, more than 10 µM.

Turning to `O=C(NO)C1(S(=O)(=O)N2CCC(c3ccc(CCC4CCC4)cn3)CC2)CCOCC1` [Example A120], the Ki on MMP-2 is 0.42 nM; on MMP-13, 0.15 nM; on MMP-9 it was 0.16 nM; at MMP-14 it was 1.28 µM; on MMP-1, 4.91 µM.

As for `CC(C)(C(=O)NO)S(=O)(=O)N1CCC(c2ccc(CCC(F)(F)C(F)(F)F)cn2)CC1` [Example A122], the Ki on MMP-2 turned out to be 0.37 nM; on MMP-13 it was 0.12 nM; at MMP-9 it was 0.27 nM; at MMP-14, 2.6 µM; at MMP-1 it was 3.1 µM.

Take `O=C(NO)C1(S(=O)(=O)N2CCC(c3ccc(CCC4CC4)cn3)CC2)CCOCC1` [Example A123]: the Ki on MMP-2 worked out at 0.58 nM; on MMP-13 it was 0.43 nM; on MMP-9, 0.08 nM; on MMP-14, 1.28 µM; on MMP-1, 5.16 µM.

In the case of `CCC(CC)(C(=O)NO)S(=O)(=O)N1CCC(c2ccc(OCC3CC3)cn2)CC1` [Example A124], the Ki at MMP-2 is 3.42 nM; on MMP-13 it was 3.11 nM; at MMP-9, 0.59 nM; at MMP-14, 7.29 µM; at MMP-1, 3.04 µM.

Consider `CN(C(=O)CCCCN1CCN(S(=O)(=O)C2(C(=O)NO)CCOCC2)CC1)C1CCCCC1` [Example A125], for which the Ki on MMP-2 is more than 10000 nM; at MMP-13, 106 nM; at MMP-9 it was more than 10000 nM; at MMP-14, more than 10 µM; on MMP-1, more than 10 µM.

Turning to `O=C(NO)C1(S(=O)(=O)N2CCC(c3ccc(CCC(F)(F)C(F)(F)F)cn3)CC2)CCC1` [Example A126], the Ki is 0.27 nM at MMP-2; 0.06 nM on MMP-13; 0.14 nM on MMP-9; 1.3 µM at MMP-14; 2.75 µM on MMP-1.

With `O=C(NO)C1(S(=O)(=O)N2CCC(c3ccc(C(F)(F)CCC(F)(F)F)cn3)CC2)CCOCC1` [Example A128], the Ki on MMP-2 is 3.33 nM; at MMP-13 it was 0.84 nM; on MMP-9 it was 8.82 nM; at MMP-14 it was more than 10 µM; at MMP-1, 5.19 µM.

With `CCC(F)(F)c1ccc(C2CCN(S(=O)(=O)C3(C(=O)NO)CCOCC3)CC2)nc1` [Example A129], the Ki at MMP-2 came out at 2.96 nM; at MMP-13, 2.81 nM; at MMP-9 it was 10.8 nM; on MMP-14 it was 4.54 µM; at MMP-1, 0.65 µM.

Take `CN(C(=O)CCCN1CCN(S(=O)(=O)C2(C(=O)NO)CCOCC2)CC1)C1CCCCC1` [Example A130]: the Ki on MMP-2 was more than 10000 nM; on MMP-13 it was 2910 nM; at MMP-9 it was more than 10000 nM; at MMP-14, more than 10 µM; on MMP-1, more than 10 µM.

For the molecule `Cc1ccc(N2CCC(C(=O)NO)(S(=O)(=O)N3CCC(c4ccc(CCC(F)(F)C(F)(F)F)cn4)CC3)CC2)cn1` [Example A131], the Ki on MMP-2 is 1.2 nM; on MMP-13, 0.34 nM; on MMP-9 it was 0.57 nM; at MMP-14 it was 1.91 µM; on MMP-1, more than 10 µM.

Consider `CC(C)COc1cnc(C2CCN(S(=O)(=O)C3(C(=O)NO)CCOCC3)CC2)cn1` [Example A132], for which the Ki was 2.29 nM at MMP-2; 1.48 nM on MMP-13; 0.45 nM at MMP-9; 5.29 µM on MMP-14; 7.17 µM at MMP-1.

Regarding `O=C(NO)C1(S(=O)(=O)N2CCC(c3ccc(C#CCCO)cn3)CC2)CCOCC1` [Example A133], the Ki at MMP-2 came out at 0.77 nM; on MMP-13, 1.12 nM; on MMP-9, 1.07 nM; on MMP-14 it was 3.87 µM; at MMP-1, 1.9 µM.

`O=C(NO)C1(S(=O)(=O)N2CCC(c3ccc(C#CCc4ccccc4)cn3)CC2)CCOCC1` [Example A134]: the Ki turned out to be 0.65 nM on MMP-2; 0.109 nM at MMP-13; 1.25 nM at MMP-9; 0.191 µM on MMP-14; 1.25 µM at MMP-1.

Take `CC(=O)OCCCC#Cc1ccc(C2CCN(S(=O)(=O)C3(C(=O)NO)CCOCC3)CC2)nc1` [Example A135]: the Ki at MMP-2 is 0.31 nM; on MMP-13, 0.28 nM; at MMP-9, 0.48 nM; at MMP-14, 0.609 µM; at MMP-1, 2.62 µM.

Consider `COC(=O)CCCC#Cc1ccc(C2CCN(S(=O)(=O)C3(C(=O)NO)CCOCC3)CC2)nc1` [Example A136], for which the Ki was found to be 0.33 nM on MMP-2; 0.48 nM on MMP-13; 2.03 nM at MMP-9; 1.15 µM at MMP-14; 4.3 µM at MMP-1.

For `CCCCC#Cc1ccc(C2CCN(S(=O)(=O)C3(C(=O)NO)CCOCC3)CC2)nc1` [Example A137], the Ki at MMP-2 amounted to 0.37 nM; at MMP-13 it was 0.09 nM; at MMP-9, 0.32 nM; at MMP-14 it was 0.221 µM; at MMP-1, 1.26 µM.

Turning to `CC(C)CC#Cc1ccc(C2CCN(S(=O)(=O)C3(C(=O)NO)CCOCC3)CC2)nc1` [Example A138], the Ki on MMP-2 was found to be 0.68 nM; on MMP-13 it was 0.14 nM; at MMP-9, 0.24 nM; at MMP-14, 0.763 µM; at MMP-1 it was 3.44 µM.

In the case of `CCCC#Cc1ccc(C2CCN(S(=O)(=O)C3(C(=O)NO)CCOCC3)CC2)nc1` [Example A139], the Ki amounted to 0.5 nM at MMP-2; 0.17 nM at MMP-13; 0.15 nM at MMP-9; 0.401 µM at MMP-14; 2.34 µM at MMP-1.

`O=C(CCCCN1CCN(S(=O)(=O)C2(C(=O)NO)CCOCC2)CC1)c1cccc(OC(F)(F)F)c1` [Example A140]: the Ki is 390 nM on MMP-2; 12.5 nM at MMP-13; 814 nM at MMP-9; more than 10 µM at MMP-14; more than 10 µM on MMP-1.

Take `CN(Cc1ccco1)C(=O)CCCC1CCN(S(=O)(=O)C2(C(=O)NO)CCOCC2)CC1` [Example A141]: the Ki at MMP-2 was 219 nM; at MMP-13, 3.4 nM; on MMP-9 it was 348 nM; on MMP-14 it was more than 10 µM; on MMP-1, 6.9 µM.

Take `Cc1ccc(N(C)C(=O)CCCC2CCN(S(=O)(=O)C3(C(=O)NO)CCOCC3)CC2)cc1` [Example A142]: the Ki was 358 nM at MMP-2; 66.4 nM on MMP-13; 184 nM on MMP-9; more than 10 µM at MMP-14; more than 10 µM at MMP-1.

`CN(C(=O)CCCC1CCN(S(=O)(=O)C2(C(=O)NO)CCOCC2)CC1)c1ccccc1` [Example A143]: the Ki was 686 nM at MMP-2; 50.8 nM on MMP-13; 389 nM on MMP-9; more than 10 µM at MMP-14; more than 10 µM at MMP-1.

For `CN(C(=O)CCCC1CCN(S(=O)(=O)C2(C(=O)NO)CCOCC2)CC1)C1CCCCC1` [Example A144], the Ki on MMP-2 was 958 nM; on MMP-13, 22.2 nM; on MMP-9, 1520 nM; at MMP-14, more than 10 µM; on MMP-1, more than 10 µM.

For the molecule `CCCN(C(=O)CCCC1CCN(S(=O)(=O)C2(C(=O)NO)CCOCC2)CC1)c1ccccc1` [Example A145], the Ki at MMP-2 was 26.3 nM; at MMP-13 it was 23 nM; on MMP-9, 15.2 nM; on MMP-14, 6.52 µM; on MMP-1 it was more than 10 µM.
